According to US6706663B2, “Herbicidal 3-heterocyclic substituted benzisothiazole and benzisoxazole compounds” (Wyeth, priority 2000, dated 2004):

Assays:
[1] = system: TRZAWR (Wheat, Winter, cv Riband); test: Postemergence herbicidal evaluation; format: in vivo, Triticum aestivum; settings: postemergence
In short: (§1)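 Visual 0–9 injury scores versus control plants, covering stand, vigour, malformation, size, chlorosis and general appearance, taken four to five weeks post-spray and averaged over replicate tests. Plants were sprayed at roughly two weeks old and held on greenhouse benches.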

[2] = system: ZEAMX (Corn, Field); test: Preemergence herbicidal evaluation; format: in vivo, Zea mays, L.; settings: rated 4-5 weeks after treatment
[3] = system: TRZAWR (Wheat, Winter, cv Riband); test: Preemergence herbicidal evaluation; format: in vivo, Triticum aestivum; settings: rated 4-5 weeks after treatment
In short: (§2)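 Steps: mix seeds with potting soil; plant on ~1 inch soil per cup; spray compound in aqueous acetone; hold on greenhouse benches with routine watering; rate 0–9 visually against control at 4–5 weeks.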

[4] = system: ABUTH (Abutilon theophrasti); test: Preemergence herbicidal evaluation; format: in vivo, Medic.; settings: rated 4-5 weeks after treatment
[5] = system: GALAP (Galium aparine); test: Preemergence herbicidal evaluation; format: in vivo; settings: rated 4-5 weeks after treatment
In short: as §2

[6] = system: AMBEL (Ambrosia artemisifolia); test: Postemergence herbicidal evaluation; format: in vivo, L.; settings: postemergence
In short: as §1

[7] = system: CHEAL (Chenopodium album); test: Postemergence herbicidal evaluation; format: in vivo, L.; settings: postemergence
In short: as §1

[8] = system: CASOB (Cassia obtusifolia); test: Postemergence herbicidal evaluation; format: in vivo, L.; settings: postemergence
In short: as §1

[9] = system: GLXMAW (Soybean, Williams); test: Preemergence herbicidal evaluation; format: in vivo, Glycine max, (L.) Merr. cv Williams; settings: rated 4-5 weeks after treatment
[10] = preemergence, rate 0.0620 kg/ha
[11] = preemergence, rate 0.1250 kg/ha
[12] = preemergence, rate 0.2500 kg/ha

| SMILES | TRZAWR herbicidal rating ([1]; rate 0.0320 kg/ha) | TRZAWR herbicidal rating ([1]; rate 0.0620 kg/ha) | Preemergence herbicidal rating ZEAMX ([2]; Rate 0.0620 kg/ha) | Preemergence herbicidal rating ZEAMX ([2]; Rate 0.1250 kg/ha) | Preemergence herbicidal rating ZEAMX ([2]; Rate 0.2500 kg/ha) | Preemergence herbicidal rating TRZAWR ([3]; Rate 0.0620 kg/ha) | Preemergence herbicidal rating TRZAWR ([3]; Rate 0.1250 kg/ha) | Preemergence herbicidal rating TRZAWR ([3]; Rate 0.2500 kg/ha) | Preemergence herbicidal rating ABUTH ([4]; Rate 0.0620 kg/ha) | Preemergence herbicidal rating ABUTH ([4]; Rate 0.1250 kg/ha) | Preemergence herbicidal rating ABUTH ([4]; Rate 0.2500 kg/ha) | Preemergence herbicidal rating GALAP ([5]; Rate 0.0620 kg/ha) | Preemergence herbicidal rating GALAP ([5]; Rate 0.1250 kg/ha) | Preemergence herbicidal rating GALAP ([5]; Rate 0.2500 kg/ha) | AMBEL herbicidal rating ([6]; rate 0.0320 kg/ha) | AMBEL herbicidal rating ([6]; rate 0.0620 kg/ha) | CHEAL herbicidal rating ([7]; rate 0.0320 kg/ha) | CHEAL herbicidal rating ([7]; rate 0.0620 kg/ha) | CASOB herbicidal rating ([8]; rate 0.0320 kg/ha) | CASOB herbicidal rating ([8]; rate 0.0620 kg/ha) | also measured |
| --- | --- | --- | --- | --- | --- | --- | --- | --- | --- | --- | --- | --- | --- | --- | --- | --- | --- | --- | --- | --- | --- |
| Cn1c(C(F)(F)F)cc(=O)n(-c2ccc3snc(C4OCC(CCl)O4)c3c2)c1=O (stereo not drawn) [Compound 72, 3-[3-[4-(chloromethyl)-1,3-dioxolan-2-yl]-1,2-benzisothiazol-5-yl]-1-methyl-6-(trifluoromethyl)uracil] | 3.5 | 4.5 | 8.0 | 8.5 | 9.0 | 7.0 | 9.0 | 9.0 | 9.0 | 9.0 | 9.0 | 8.0 | 9.0 | 9.0 | 9.0 | 9.0 | 9.0 | 9.0 | 5.0 | 5.0 | Preemergence herbicidal rating GLXMAW ([9]; Rate 0.0620 kg/ha): 6.5; Preemergence herbicidal rating GLXMAW ([9]; Rate 0.1250 kg/ha): 9.0; Preemergence herbicidal rating GLXMAW ([9]; Rate 0.2500 kg/ha): 9.0 |
| Cn1c(C(F)(F)F)cc(=O)n(-c2ccc3snc(-c4sccc4CO)c3c2)c1=O [Compound 85, 3-[3-[3-(hydroxymethyl)-2-thienyl]-1,2-benzisothiazol-5-yl]-1-methyl-6-(trifluoromethyl)uracil] | 2.0 | 3.5 |  |  |  |  |  |  |  |  |  |  |  |  | 5.0 | 9.0 | 9.0 | 9.0 | 4.0 | 4.0 | Preemergence herbicidal rating ZEAMX [2, 10]: 0.0; Preemergence herbicidal rating ZEAMX [2, 11]: 3.0; Preemergence herbicidal rating ZEAMX [2, 12]: 3.0; Preemergence herbicidal rating TRZAWR [3, 10]: 0.0; Preemergence herbicidal rating TRZAWR [3, 11]: 0.0; Preemergence herbicidal rating TRZAWR [3, 12]: 3.0; Preemergence herbicidal rating ABUTH [4, 10]: 9.0; Preemergence herbicidal rating ABUTH [4, 11]: 9.0; Preemergence herbicidal rating ABUTH [4, 12]: 9.0; Preemergence herbicidal rating GALAP [5, 10]: 4.0; Preemergence herbicidal rating GALAP [5, 11]: 6.0; Preemergence herbicidal rating GALAP [5, 12]: 9.0; Preemergence herbicidal rating GLXMAW [9, 10]: 0.0; Preemergence herbicidal rating GLXMAW [9, 11]: 3.0; Preemergence herbicidal rating GLXMAW [9, 12]: 9.0 |
| Cn1c(C(F)(F)F)cc(=O)n(-c2ccc3snc(C4OCC(c5ccccc5)O4)c3c2)c1=O (stereo not drawn) [Compound 78, 1-methyl-3-[3-(4-phenyl-1,3-dioxolan-2-yl)-1,2-benzisothiazol-5-yl]-6-(trifluoromethyl)uracil] | 3.5 | 5.0 | 3.0 | 3.5 | 6.0 | 5.0 | 5.0 | 6.0 | 9.0 | 9.0 | 9.0 | 7.0 | 7.0 | 7.0 | 9.0 | 9.0 | 9.0 | 9.0 | 9.0 | 6.0 | Preemergence herbicidal rating GLXMAW ([9]; Rate 0.0620 kg/ha): 2.5; Preemergence herbicidal rating GLXMAW ([9]; Rate 0.1250 kg/ha): 6.0; Preemergence herbicidal rating GLXMAW ([9]; Rate 0.2500 kg/ha): 5.0 |
| Cn1c(C(F)(F)F)cc(=O)n(-c2ccc3snc(-c4ccoc4)c3c2)c1=O [Compound 83, 3-[3-(3-furyl)-1,2-benzisothiazol-5-yl]-1-methyl-6-(trifluoromethyl)uracil] | 2.0 | 3.0 |  |  |  |  |  |  |  |  |  |  |  |  | 2.0 | 6.0 | 3.0 | 6.0 | 4.0 | 6.0 | Preemergence herbicidal rating ZEAMX [2, 10]: 3.0; Preemergence herbicidal rating ZEAMX [2, 11]: 5.0; Preemergence herbicidal rating ZEAMX [2, 12]: 6.0; Preemergence herbicidal rating TRZAWR [3, 10]: 3.0; Preemergence herbicidal rating TRZAWR [3, 11]: 4.0; Preemergence herbicidal rating TRZAWR [3, 12]: 5.0; Preemergence herbicidal rating ABUTH [4, 10]: 2.0; Preemergence herbicidal rating ABUTH [4, 11]: 7.5; Preemergence herbicidal rating ABUTH [4, 12]: 9.0; Preemergence herbicidal rating GALAP [5, 11]: 4.0; Preemergence herbicidal rating GLXMAW [9, 10]: 0.0; Preemergence herbicidal rating GLXMAW [9, 11]: 2.5; Preemergence herbicidal rating GLXMAW [9, 12]: 6.0 |
